Data published in patent US20130217681A1, “METHOD AND COMPOSITION FOR WEIGHT-GAIN MANAGEMENT” (TECHNION RESEARCH AND DEVELOPMENT FOUNDATION LTD., priority 2010, published 2013).
Where “and” joins values, the source holds several entries; their conditions need not be identical. Equal values may be shown once. Read-outs that look alike come from different tables or passages of the source.

Experiments:
[1] = tested on: animal models of obesity; conditions: cited from earlier work
[2] = olanzapine-treated first episode schizophrenia patients, cited from earlier work
[3] = betahistine in a small group (n=7) of olanzapine-treated first-episode schizophrenia patients; format: in vivo, Human
Excerpt: Similarly, betahistine was associated with a modest attenuation of weight gain in a small group (n=7) of olanzapine-treated first-episode schizophrenia patients: the betahistine group 3.86 kg versus the placebo group 5.03 kg.
Similarly, betahistine was associated with a modest attenuation of weight gain in a small group (n=7) of olanzapine-treated first-episode schizophrenia patients: the betahistine group gained 3.86 kg versus the placebo group 5.03 kg.

[4] = in 10 weeks; cited from earlier work
[5] = baseline to endpoint, 6 weeks
[6] = cited from earlier work; for weight gain, mean (SD): olanzapine-treated patients, reboxetine 4 mg/day, 31 patients reboxetine, 29 placebo

Compound: CNCCc1ccccn1 [betahistine]
- food intake [1]: inhibit food intake
- tolerability [2]: safe, well tolerated
- effect on weight gain ([2]; small sample, open design): prevents weight gain
- weight gain, mean (SD) [3]: 3.86 kg
- weight gain, mean (SD) ([3]; listed as Olanzapine+betahistine): 3.86 (0.9) kg

Compound: Cc1cc2c(s1)Nc1ccccc1N=C2N1CCN(C)CC1 [olanzapine + placebo, olanzapine]
- weight gain induced in treated patients [4]: 3.5 kg
- change in triglyceride level [5]: almost two-fold increase
- weight gain, mean (SD) [6]: 4.91 (2.45) kg
- patients who gained at least 7% of their initial weight (clinically significant weight gain) (6 week trial, 30 vs 13 patients): 46.1%
- weight gain during the trial, average (SD) (6 week trial, olanzapine 10 mg, betahistine 48 mg/day, reboxetine 4 mg, Example 1): 5.5 (2.7) kg
- body weight (Week 1): 70.4 kg
- increase in body weight, Δ from baseline (Week 1): 1.2 kg^
- body weight (Week 2): 71.3 kg
- increase in body weight, Δ from baseline (Week 2): 2.3 kg
- body weight (Week 3): 72 kg
- increase in body weight, Δ from baseline (Week 3): 3.8 kg
- body weight (Week 4): 73.4 kg
- increase in body weight, Δ from baseline (Week 4): 4.3 kg
- body weight (Week 5): 74.2 kg
- increase in body weight, Δ from baseline (Week 5): 5.4 kg
- body weight (Week 6): 75.4 kg
- increase in body weight, Δ from baseline (Week 6): 5.5 kg

Compound: CCOc1ccccc1OC(c1ccccc1)C1CNCCO1 (centres unmarked) [reboxetine]
- weight-attenuating effect ([6]; low-dose 4 mg/day, schizophrenic patients treated with olanzapine): significant weight-attenuating effect
- weight gain, mean (SD) [6]: 3.31 (2.73) kg and 3.31 kg
- weight gain, mean (SD) ([6]; listed as Olanzapine+reboxetine): 3.31 (2.73) kg
- tolerability ([6]; reboxetine-olanzapine treated patients): safe and well tolerated and no clinically significant side effects were found
